Read-outs that look alike come from different tables or passages of the source.
What was measured:
Assay type in all cases: cell-based
[1] = system: S. aureus ATCC 29213 (methicillin sensitive); assay: broth microdilution MIC assay, S. aureus ATCC 29213; details: Staphylococcus aureus, ATCC 29213 / MSSA
Protocol: (§1) To determine the ability of test compounds to potentiate the inhibition of the growth of bacterial strains, classic cell-based broth microdilution MIC assays were employed. MIC assays are performed according to CLSI methods except where otherwise noted (CLSI, 2011 and CLSI, 2009). The reference strains S. aureus ATCC 29213 (methicillin sensitive), S. aureus ATCC 33591 (methicillin-resistant), E. coli ATCC 25922 (wild-type/QC strain), P. aeruginosa ATCC 27853 (wild-type/QC strain), and the clinical isolate P. aeruginosa PA 8 were used to determine the ability of the exemplary carbapenem compounds to inhibit bacterial growth. An expanded panel of methicillin resistance S. aureus (MRSA) and Pseudomonas was also used to determine the ability of exemplary carbapenem compounds to inhibit bacterial growth across a broader representation of those species. To determine activity in MRSA and in addition to S. aureus ATCC 33591, S. aureus USA 300, USA 400 and USA 600, some of the most common clones found to cause human infection, were also used. To further gauge the impact on the carbapenem compounds due to various resistance mechanisms in Pseudomonas, the following strains were included: P. aeruginosa 35151 (hyper-permeable strain), P. aeruginosa AmexAB-OprM (an efflux pump knockout), and P. aeruginosa PA 3 (a clinical isolate of reduced carbapenem susceptibility). Briefly, cryo-preserved bacterial cultures of clinical strains are streaked for isolation on appropriate agar medium, in this case Mueller Hinton II agar. Following incubation to allow formation of colonies, these plates are sealed with parafilm and stored refrigerated for up to two weeks. For preparation of assay inocula and to ensure low variability, at least 5 colonies are picked from the agar plates with an inoculating loop and aseptically transferred to a culture tube containing 3 mL of Mueller-Hinton Broth (supplemented with divalent cations to required levels based on Manufacturers' specification). The broth culture is grown for 3-5 hours at 37° C. with shaking at 200 rpm. Meanwhile, 2-fold serial dilutions of test compounds are conducted in a 96 well plate with a final volume of 75 μL per well at 2-fold the final desired concentration. After the dilution plates are set up the growing cultures are then diluted in a cuvette containing MH II broth and the optical density is measured at 600 nm. Inocula are diluted such that 75 μL of this culture in Mueller-Hinton Broth results in a starting bacterial concentration of 5×10^5 CFU/mL when added to the dilution plates. The plates are incubated 16-20 hours at 37° C. The MIC is read visually as the lowest concentration well with no bacterial growth.
(§2) Representative results are shown in Tables 3, 4, and 5 where A represents an MIC>32 μg/mL, B represents an MIC between 8 and 32 μg/mL inclusive, C represents an MIC between 1 and 4 μg/mL inclusive, and D represents an MIC of <1 μg/mL. NT=Not Tested.

[2] = system: S. aureus ATCC 33591 (methicillin-resistant); assay: broth microdilution MIC assay, S. aureus ATCC 33591; details: Staphylococcus aureus
How it was run: (§3)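 MIC = lowest compound concentration with no visible growth after 16-20 h at 37 °C. Inoculum 5×10^5 CFU/mL from 3-5 h Mueller-Hinton broth cultures standardized by OD600; compounds tested as 2-fold serial dilutions per CLSI.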

[3] = system: E. coli ATCC 25922 (wild-type/QC strain); assay: broth microdilution MIC assay, E. coli ATCC 25922; details: Escherichia coli
How it was run: as §3

[4] = system: P. aeruginosa ATCC 27853 (wild-type/QC strain); assay: broth microdilution MIC assay, P. aeruginosa ATCC 27853; details: Pseudomonas aeruginosa
How it was run: as §3

S. aureus USA 300 = assay: broth microdilution MIC assay, S. aureus USA 300; details: Staphylococcus aureus; Table 4; S. aureus USA300; read-out: S. aureus USA300 MIC
Protocol: as §1, §2

S. aureus USA600 = assay: broth microdilution MIC assay, S. aureus USA 600; details: Staphylococcus aureus; Table 4; S. aureus USA600; read-out: S. aureus USA600 MIC
Protocol: as §1, §2

[5] = system: P. aeruginosa 35151 (hyper-permeable strain); assay: broth microdilution MIC assay, P. aeruginosa 35151; details: Pseudomonas aeruginosa, read-out: P. aeruginosa 35151 MIC
Protocol: as §1, §2

[6] = system: P. aeruginosa ΔmexAB-OprM (an efflux pump knockout); assay: broth microdilution MIC assay, P. aeruginosa ΔmexAB-OprM; details: Pseudomonas aeruginosa, 20 h, read-out: P. aeruginosa ΔmexAB-OprM MIC
Protocol: as §1, §2

[7] = Table 3, S. aureus 29213 (MSSA), read-out: S. aureus 29213 (MSSA) MIC
[8] = ATCC 33591 / MRSA, Table 3, S. aureus 33591 (MRSA), read-out: S. aureus 33591 (MRSA) MIC
[9] = ATCC25922, Table 3, E. coli 25922, read-out: E. coli 25922 MIC
[10] = ATCC27853, Table 3, P. aeruginosa 27853, read-out: P. aeruginosa 27853 MIC
[11] = ATCC33591, Table 4, S. aureus 33591, read-out: S. aureus 33591 MIC
[12] = ATCC25922, Table 4, E. coli 25922, read-out: E. coli 25922 MIC
[13] = ATCC27853, Table 5, P. aeruginosa 27853, read-out: P. aeruginosa 27853 MIC

Row | MIC [1, 7] [µg/mL] | MIC [2, 8] [µg/mL] | MIC [3, 9] [µg/mL] | MIC [4, 10] [µg/mL] | SMILES | MIC ([1]; read-out: S. aureus 29213 (MSSA) MIC (μg/mL)) [µg/mL] | MIC ([2]; ATCC 33591 / MRSA, read-out: S. aureus 33591 (MRSA) MIC (μg/mL)) [µg/mL] | MIC ([3]; ATCC25922, read-out: E. coli 25922 MIC (μg/mL)) [µg/mL] | MIC ([4]; ATCC27853, read-out: P. aeruginosa 27853 MIC (μg/mL)) [µg/mL] | MIC [2, 11] [µg/mL] | MIC [3, 12] [µg/mL] | MIC [4, 13] [µg/mL] | MIC (S. aureus USA 300) [µg/mL] | MIC (S. aureus USA600) [µg/mL] | MIC [5] [µg/mL] | MIC [6] [µg/mL]
1 | – | – | – | – | C[C@@H](O)[C@H]1C(=O)N2C(C(=O)O)=C(S[C@@H]3CCN(CC4(F)CCNCC4)C3)[C@H](C)[C@H]12 [Example 16, (4R,5S,6S)-3-(((R)-1-((4-fluoropiperidin-4-yl)methyl)pyrrolidin-3-yl)thio)-6-((R)-1-hydroxyethyl)-4-methyl-7-oxo-1-azabicyclo[3.2.0]hept-2-ene-2-carboxylic acid] | < 1 | 8 to 32 | < 1 | 8 to 32 | – | – | – | – | – | – | –
2 | < 1 | 8 to 32 | < 1 | 8 to 32 | C[C@@H](O)[C@H]1C(=O)N2C(C(=O)O)=C(S[C@@H]3CCN(CC4CCCNC4)C3)[C@H](C)[C@H]12 (stereo partly drawn) [Example 12, (4R,5S,6S)-6-((R)-1-hydroxyethyl)-4-methyl-7-oxo-3-(((3R)-1-(piperidin-3-ylmethyl)pyrrolidin-3-yl)thio)-1-azabicyclo[3.2.0]hept-2-ene-2-carboxylic acid] | – | – | – | – | – | – | – | – | – | – | –
3 | < 1 | 8 to 32 | < 1 | 8 to 32 | C[C@@H](O)[C@H]1C(=O)N2C(C(=O)O)=C(S[C@@H]3CCN(C[C@@H]4CCCN4)C3)[C@H](C)[C@H]12 [Example 14, (4R,5S,6S)-6-((R)-1-hydroxyethyl)-4-methyl-7-oxo-3-(((R)-1-(((S)-pyrrolidin-2-yl)methyl)pyrrolidin-3-yl)thio)-1-azabicyclo[3.2.0]hept-2-ene-2-carboxylic acid] | – | – | – | – | – | – | – | – | – | – | –
4 | < 1 | 8 to 32 | < 1 | 1 to 4 | C[C@@H](O)[C@H]1C(=O)N2C(C(=O)O)=C(S[C@@H]3CCN(C4CCNCC4)C3)[C@H](C)[C@H]12 [Example 1, (4R,5S,6S)-6-((R)-1-hydroxyethyl)-4-methyl-7-oxo-3-(((R)-1-(piperidin-4-yl)pyrrolidin-3-yl)thio)-1-azabicyclo[3.2.0]hept-2-ene-2-carboxylic acid] | – | – | – | – | – | – | – | – | – | – | –
5 | – | – | – | – | C[C@@H](O)[C@H]1C(=O)N2C(C(=O)O)=C(S[C@@H]3CCN(CC4CCN(CCO)CC4)C3)[C@H](C)[C@H]12 [Example 40, (4R,5S,6S)-6-((R)-1-hydroxyethyl)-3-(((R)-1-((1-(2-hydroxyethyl)piperidin-4-yl)methyl)pyrrolidin-3-yl)thio)-4-methyl-7-oxo-1-azabicyclo[3.2.0]hept-2-ene-2-carboxylic acid] | – | – | – | – | 8 to 32 | < 1 | 1 to 4 | 1 to 4 | 1 to 4 | < 1 | 1 to 4
6 | – | – | – | – | C[C@@H](O)[C@H]1C(=O)N2C(C(=O)O)=C(S[C@@H]3CCN(CC4CCN(CC(N)=O)CC4)C3)[C@H](C)[C@H]12 [Example 41, (4R,5S,6S)-3-(((R)-1-((1-(2-amino-2-oxoethyl)piperidin-4-yl)methyl)pyrrolidin-3-yl)thio)-6-((R)-1-hydroxyethyl)-4-methyl-7-oxo-1-azabicyclo[3.2.0]hept-2-ene-2-carboxylic acid] | – | – | – | – | 8 to 32 | < 1 | 8 to 32 | 1 to 4 | 1 to 4 | < 1 | 1 to 4
7 | – | – | – | – | C[C@@H](O)[C@H]1C(=O)N2C(C(=O)O)=C(SC3CN(CCC4CCNCC4)C3)[C@H](C)[C@H]12 [Example 56, (4R,5S,6S)-6-((R)-1-hydroxyethyl)-4-methyl-7-oxo-3-((1-(2-(piperidin-4-yl)ethyl)azetidin-3-yl)thio)-1-azabicyclo[3.2.0]hept-2-ene-2-carboxylic acid] | – | – | – | – | 1 to 4 | < 1 | 1 to 4 | 1 to 4 | 1 to 4 | < 1 | 1 to 4
8 | < 1 | 8 to 32 | < 1 | 8 to 32 | C[C@@H](O)[C@H]1C(=O)N2C(C(=O)O)=C(S[C@@H]3CCN(CC4CCCCN4)C3)[C@H](C)[C@H]12 (stereo partly drawn) [Example 13, (4R,5S,6S)-6-((R)-1-hydroxyethyl)-4-methyl-7-oxo-3-(((3R)-1-(piperidin-2-ylmethyl)pyrrolidin-3-yl)thio)-1-azabicyclo[3.2.0]hept-2-ene-2-carboxylic acid] | – | – | – | – | – | – | – | – | – | – | –
9 | < 1 | 8 to 32 | < 1 | 8 to 32 | C[C@@H](O)[C@H]1C(=O)N2C(C(=O)O)=C(S[C@@H]3CCN(Cc4cccnc4)C3)[C@H](C)[C@H]12 [Example 10, (4R,5S,6S)-6-((R)-1-hydroxyethyl)-4-methyl-7-oxo-3-(((R)-1-(pyridin-3-ylmethyl)pyrrolidin-3-yl)thio)-1-azabicyclo[3.2.0]hept-2-ene-2-carboxylic acid] | – | – | – | – | – | – | – | – | – | – | –
10 | – | – | – | – | C[C@@H](O)[C@H]1C(=O)N2C(C(=O)O)=C(S[C@@H]3CCN(C[C@@H]4CCN(C(=N)N)C4)C3)[C@H](C)[C@H]12 [Example 54, (4R,5S,6S)-3-(((R)-1-(((S)-1-carbamimidoylpyrrolidin-3-yl)methyl)pyrrolidin-3-yl)thio)-6-((R)-1-hydroxyethyl)-4-methyl-7-oxo-1-azabicyclo[3.2.0]hept-2-ene-2-carboxylic acid] | – | – | – | – | 1 to 4 | < 1 | 1 to 4 | < 1 | 1 to 4 | < 1 | < 1
11 | – | – | – | – | C[C@@H](O)[C@H]1C(=O)N2C(C(=O)O)=C(SC3CN(CC4CCCNC4)C3)[C@H](C)[C@H]12 (stereo partly drawn) [Example 57, (4R,5S,6S)-6-((R)-1-hydroxyethyl)-4-methyl-7-oxo-3-((1-(piperidin-3-ylmethyl)azetidin-3-yl)thio)-1-azabicyclo[3.2.0]hept-2-ene-2-carboxylic acid] | – | – | – | – | 8 to 32 | < 1 | 1 to 4 | 1 to 4 | 1 to 4 | < 1 | 1 to 4
12 | – | – | – | – | CCN[C@H]1CC[C@H](CN2CC(SC3=C(C(=O)O)N4C(=O)[C@H]([C@@H](C)O)[C@H]4[C@H]3C)C2)CC1 [Example 69, (4R,5S,6S)-3-((1-(((1r,4R)-4-(ethylamino)cyclohexyl)methyl)azetidin-3-yl)thio)-6-((R)-1-hydroxyethyl)-4-methyl-7-oxo-1-azabicyclo[3.2.0]hept-2-ene-2-carboxylic acid] | – | – | – | – | 1 to 4 | < 1 | 1 to 4 | 1 to 4 | 1 to 4 | < 1 | 1 to 4

Reference: patent US12084445B2, “Broad-spectrum carbapenems” (VenatoRx Pharmaceuticals, Inc., priority 2018, dated 2024)
